# Test results as given in patent publication US20060172993A1 (priority 2002, published 2006).
# Tested on: Patients diagnosed with Alzheimer's Disease
# Experiment: Adverse events / safety monitoring in the trial
# Format: in vivo, human
# Procedure: Subjects in the Placebo group received 21 weeks (5 months) of placebo medication.
# The safety of the drug was also monitored throughout the study. Blood samples for biochemistry and haematology and random urine sample for urinalysis were taken at each visit and at completion for all efficacy testing. Systolic and diastolic blood pressure were measured in the sitting position, pulse and vital signs were recorded at each visit.
structure (smiles),measurement,setting,value
"COc1ccc2c3c1O[C@H]1C[C@@H](O)C=C[C@@]31CCN(C)C2 [GAL, galantamine]","Serious adverse event Basal cell carcinoma, % of patients",16 mg/day,(0.0%)
same,"Serious adverse event Basal cell carcinoma, number of patients",16 mg/day,0
same,"Serious adverse event Breast neoplasm female, % of patients",16 mg/day,(0.0%)
same,"Serious adverse event Breast neoplasm female, number of patients",16 mg/day,0
same,"Serious adverse event Cardiac failure, % of patients",16 mg/day,(1.1%)
same,"Serious adverse event Cardiac failure, number of patients",16 mg/day,3
same,"Serious adverse event Dehydration, % of patients",16 mg/day,(1.1%)
same,"Serious adverse event Dehydration, number of patients",16 mg/day,3
same,"Serious adverse event Diarrhea, % of patients",16 mg/day,(1.1%)
same,"Serious adverse event Diarrhea, number of patients",16 mg/day,3
same,"Serious adverse event Dyspnea, % of patients",16 mg/day,(0.7%)
same,"Serious adverse event Dyspnea, number of patients",16 mg/day,2
same,"Serious adverse event Fall, % of patients",16 mg/day,(0.4%)
same,"Serious adverse event Fall, number of patients",16 mg/day,1
same,"Serious adverse event Gi haemorrhage, % of patients",16 mg/day,(0.0%)
same,"Serious adverse event Gi haemorrhage, number of patients",16 mg/day,0
same,"Serious adverse event Injury, % of patients",16 mg/day,(0.4%)
same,"Serious adverse event Injury, number of patients",16 mg/day,1
same,"Serious adverse event Myocardial infarction, % of patients",16 mg/day,(0.4%)
same,"Serious adverse event Myocardial infarction, number of patients",16 mg/day,1
same,"Serious adverse event Nausea, % of patients",16 mg/day,(0.7%)
same,"Serious adverse event Nausea, number of patients",16 mg/day,2
same,"Serious adverse event Pneumonia, % of patients",16 mg/day,(0.7%)
same,"Serious adverse event Pneumonia, number of patients",16 mg/day,2
same,"Serious adverse event Sepsis, % of patients",16 mg/day,(0.0%)
same,"Serious adverse event Sepsis, number of patients",16 mg/day,0
same,"Serious adverse event Surgical intervention, % of patients",16 mg/day,(1.1%)
same,"Serious adverse event Surgical intervention, number of patients",16 mg/day,3
same,"Serious adverse event Syncope, % of patients",16 mg/day,(1.4%)
same,"Serious adverse event Syncope, number of patients",16 mg/day,4
same,"Serious adverse event Thrombophlebitis deep, % of patients",16 mg/day,(0.0%)
same,"Serious adverse event Thrombophlebitis deep, number of patients",16 mg/day,0
same,"Serious adverse event Transient ischemic attack, % of patients",16 mg/day,(0.7%)
same,"Serious adverse event Transient ischemic attack, number of patients",16 mg/day,2
same,"Serious adverse event Urinary tract infection, % of patients",16 mg/day,(0.7%)
same,"Serious adverse event Urinary tract infection, number of patients",16 mg/day,2
same,"Serious adverse event Vomiting, % of patients",16 mg/day,(0.7%)
same,"Serious adverse event Vomiting, number of patients",16 mg/day,2
same,"Total patients with any SAE, %",16 mg/day,(10.0%)
same,"Total patients with any SAE, number",16 mg/day,28
same,"Adverse event Agitation, % of patients",24 mg/day,(8.1%)
same,"Adverse event Agitation, number of patients",24 mg/day,22
same,"Adverse event Anorexia, % of patients",24 mg/day,(8.8%)
same,"Adverse event Anorexia, number of patients",24 mg/day,24
same,"Adverse event Depression, % of patients",24 mg/day,(8.%)
same,"Adverse event Depression, number of patients",24 mg/day,22
same,"Adverse event Diarrhea, % of patients",24 mg/day,(5.5%)
same,"Adverse event Diarrhea, number of patients",24 mg/day,15
same,"Adverse event Dizziness, % of patients",24 mg/day,(7.0%)
same,"Adverse event Dizziness, number of patients",24 mg/day,19
same,"Adverse event Dyspepsia, % of patients",24 mg/day,(5.5%)
same,"Adverse event Dyspepsia, number of patients",24 mg/day,15
same,"Adverse event Edema peripheral, % of patients",24 mg/day,(2.6%)
same,"Adverse event Edema peripheral, number of patients",24 mg/day,7
same,"Adverse event Fall, % of patients",24 mg/day,(4.4%)
same,"Adverse event Fall, number of patients",24 mg/day,12
same,"Adverse event Headache, % of patients",24 mg/day,(4.8%)
same,"Adverse event Headache, number of patients",24 mg/day,13
same,"Adverse event Injury, % of patients",24 mg/day,(5.9%)
same,"Adverse event Injury, number of patients",24 mg/day,16
same,"Adverse event Nausea, % of patients",24 mg/day,(16.5%)
same,"Adverse event Nausea, number of patients",24 mg/day,45
same,"Adverse event Rhinitis, % of patients",24 mg/day,(4.0%)
same,"Adverse event Rhinitis, number of patients",24 mg/day,11
same,"Adverse event Urinary tract infection, % of patients",24 mg/day,(8.1%)
same,"Adverse event Urinary tract infection, number of patients",24 mg/day,22
same,"Adverse event Vomiting, % of patients",24 mg/day,(9.9%)
same,"Adverse event Vomiting, number of patients",24 mg/day,27
same,"Adverse event Weight decrease, % of patients",24 mg/day,(4.8%)
same,"Adverse event Weight decrease, number of patients",24 mg/day,13
same,"Adverse event of clinical interest Bradycardia, % of patients",24 mg/day,(2.9%)
same,"Adverse event of clinical interest Bradycardia, number of patients",24 mg/day,8
same,"Adverse event of clinical interest Convulsions, % of patients",24 mg/day,(0.4%)
same,"Adverse event of clinical interest Convulsions, number of patients",24 mg/day,1
same,"Adverse event of clinical interest Fatigue, % of patients",24 mg/day,(4.8%)
same,"Adverse event of clinical interest Fatigue, number of patients",24 mg/day,13
same,"Adverse event of clinical interest Muscle weakness, % of patients",24 mg/day,(0.4%)
same,"Adverse event of clinical interest Muscle weakness, number of patients",24 mg/day,1
same,"Adverse event of clinical interest Syncope, % of patients",24 mg/day,(3.3%)
same,"Adverse event of clinical interest Syncope, number of patients",24 mg/day,9
same,"Serious adverse event Abdominal pain, % of patients",24 mg/day,(0.0%)
same,"Serious adverse event Abdominal pain, number of patients",24 mg/day,0
same,"Serious adverse event Agitation, % of patients",24 mg/day,(0.0%)
same,"Serious adverse event Agitation, number of patients",24 mg/day,0
same,"Serious adverse event Asthenia, % of patients",24 mg/day,(0.4%)
same,"Serious adverse event Asthenia, number of patients",24 mg/day,1
same,"Serious adverse event Basal cell carcinoma, % of patients",24 mg/day,(0.7%)
same,"Serious adverse event Basal cell carcinoma, number of patients",24 mg/day,2
same,"Serious adverse event Breast neoplasm female, % of patients",24 mg/day,(0.0%)
same,"Serious adverse event Breast neoplasm female, number of patients",24 mg/day,0
same,"Serious adverse event Cardiac failure, % of patients",24 mg/day,(0.0%)
same,"Serious adverse event Cardiac failure, number of patients",24 mg/day,0
same,"Serious adverse event Dehydration, % of patients",24 mg/day,(0.0%)
same,"Serious adverse event Dehydration, number of patients",24 mg/day,0
same,"Serious adverse event Diarrhea, % of patients",24 mg/day,(0.0%)
same,"Serious adverse event Diarrhea, number of patients",24 mg/day,0
same,"Serious adverse event Dyspnea, % of patients",24 mg/day,(1.1%)
same,"Serious adverse event Dyspnea, number of patients",24 mg/day,3.
same,"Serious adverse event Fall, % of patients",24 mg/day,(1.1%)
same,"Serious adverse event Fall, number of patients",24 mg/day,3
same,"Serious adverse event Gi haemorrhage, % of patients",24 mg/day,(0.7%)
same,"Serious adverse event Gi haemorrhage, number of patients",24 mg/day,2
same,"Serious adverse event Injury, % of patients",24 mg/day,(1.8%)
same,"Serious adverse event Injury, number of patients",24 mg/day,5
same,"Serious adverse event Myocardial infarction, % of patients",24 mg/day,(0.4%)
same,"Serious adverse event Myocardial infarction, number of patients",24 mg/day,1
same,"Serious adverse event Nausea, % of patients",24 mg/day,(0.0%)
same,"Serious adverse event Nausea, number of patients",24 mg/day,0
same,"Serious adverse event Pneumonia, % of patients",24 mg/day,(1.1%)
same,"Serious adverse event Pneumonia, number of patients",24 mg/day,3
same,"Serious adverse event Sepsis, % of patients",24 mg/day,(0.0%)
same,"Serious adverse event Sepsis, number of patients",24 mg/day,0
same,"Serious adverse event Surgical intervention, % of patients",24 mg/day,(0.0%)
same,"Serious adverse event Surgical intervention, number of patients",24 mg/day,0
same,"Serious adverse event Syncope, % of patients",24 mg/day,(1.8%)
same,"Serious adverse event Syncope, number of patients",24 mg/day,5
same,"Serious adverse event Thrombophlebitis deep, % of patients",24 mg/day,(0.7%)
same,"Serious adverse event Thrombophlebitis deep, number of patients",24 mg/day,2
same,"Serious adverse event Transient ischemic attack, % of patients",24 mg/day,(0.0%)
same,"Serious adverse event Transient ischemic attack, number of patients",24 mg/day,0
same,"Serious adverse event Urinary tract infection, % of patients",24 mg/day,(0.0%)
same,"Serious adverse event Urinary tract infection, number of patients",24 mg/day,0
same,"Serious adverse event Vomiting, % of patients",24 mg/day,(0.4%)
same,"Serious adverse event Vomiting, number of patients",24 mg/day,1
same,Syncope incidence,24 mg/day,slight dose-related increase in incidence
same,"Total patients with any SAE, %",24 mg/day,(12.8%)
same,"Total patients with any SAE, number",24 mg/day,35
same,"Occurrence of nausea, vomiting and anorexia","8, 16, 24 mg/day",mild dose-related occurrence at a relatively low incidence
same,Bradycardia incidence compared with placebo,all galantamine doses,higher incidence
same,Incidence of serious adverse events,all treatment groups,comparable across all treatment groups
same,Deaths related to trial medication,throughout the trial,No death was considered by the investigator to be related to trail medication
